Results as given in patent publication US20060014811A1, “Medicament for treatment of cancer” (priority 2002, published 2006).

Tests used:
B16 melanoma = experiment: Metastasis inhibitory test using mouse bearing B16 melanoma; assay type: in vivo, B6 mouse; parameters: key to Colony Formation (melanoma colonies in the lungs vs control): ±: Same as control; +: Inhibited; ++: Remarkably inhibited; +++: No Formation; settings: 30 mg/kg intraperitoneal once a day for 5 weeks, B16 melanoma cells inoculated by tail vein
Protocol: B16 melanoma cells (5×10^5 cells/mouse) were inoculated from a tail vein of a B6 mouse of the same kind by intravenous injection, and a test substance was administered once a day for 5 weeks from the day of the inoculation by intraperitoneal injection. Then, the test animal was sacrificed and the lungs were removed. The number of colonies of melanoma in the lungs was compared with that in the control (test substance administered at 0 mg/kg).

[1] = system: MIA PACA-2: Human pancreatic cancer; experiment: Inhibitory test against cancer cell proliferation (1), MTS method; assay type: cell-based; settings: 50% inhibitory concentration against proliferation, cultured for 3 days
Protocol: (§1) Cancer cells (Jurkat: Human T-cell leukemia, MIA PACA-2: Human pancreatic cancer, RD: Human rhabdomyoma, HepG2: Human liver cancer) were cultured for 3 days in the presence or absence of a test compound using RPMI1640 medium containing 10% bovine fetal serum or Dalbecco's Modified Eagle's Medium containing 10% FBS. The number of living cells was counted by MTS method, and amounts of cell proliferation were compared and inhibitory ratios were measured. In the table below, 50% inhibitory concentrations against the proliferation of each cancer cell are shown.

[2] = system: Jurkat: Human T-cell leukemia; experiment: as above; assay type: cell-based; settings: 50% inhibitory concentration against proliferation, cultured for 3 days
Protocol: as §1

RD: Human rhabdomyoma = experiment: as above; assay type: cell-based; settings: 50% inhibitory concentration against proliferation, cultured for 3 days
Protocol: as §1

[3] = system: HepG2: Human liver cancer; experiment: as above; assay type: cell-based; settings: 50% inhibitory concentration against proliferation, cultured for 3 days
Protocol: as §1

[4] = system: MIA PACA-2: Human pancreatic cancer; experiment: Inhibitory test against cancer cell proliferation (3); assay type: cell-based; settings: Test Example 6, 50% inhibitory concentration against proliferation, similar operations to Test Example 1
Protocol: as §1
(§2) Similar operations to Test Example 1 were carried out using cancer cells (HepG2: human liver cancer, A^549: human lung cancer, MIA PACA-2: human pancreatic cancer). In the table below, 50% inhibitory concentrations against proliferation of each cancer cell are shown.

A549: human lung cancer = experiment: as above; assay type: cell-based; settings: Test Example 6, 50% inhibitory concentration against proliferation, similar operations to Test Example 1
Protocol: as §1, §2

[5] = system: HepG2: Human liver cancer; experiment: as above; assay type: cell-based; settings: Test Example 6, 50% inhibitory concentration against proliferation, similar operations to Test Example 1
Protocol: as §1, §2

Row | Structure (SMILES) | IC50 ([1]; Homo sapiens, MIA PaCa-2, 72 h) [µM] | IC50 ([2]; Homo sapiens, Jurkat, 72 h) [µM] | IC50 (RD: Human rhabdomyoma; Homo sapiens, 72 h) [µM] | IC50 ([3]; Homo sapiens, HepG2, 72 h) [µM] | IC50 ([4]; Homo sapiens, MIA PaCa-2) [µM] | IC50 (A549: human lung cancer; Homo sapiens, A549) [µM] | IC50 ([5]; Homo sapiens, HepG2) [µM] | further results
1 | O=C(Nc1cc(C(F)(F)F)cc(C(F)(F)F)c1)c1cc(Cl)ccc1O [compound 4, N-[3,5-bis(trifluoromethylphenyl)]-5-chloro-2-hydroxybenzamide] |  |  |  |  |  |  |  | Colony Formation (melanoma colonies in the lungs vs control) (B16 melanoma): ++; Survival Ratio after 5 weeks(%) (B16 melanoma; control 50%): 100%; IC50 [1]: 0.65 µM; IC50 [2]: 0.74 µM; IC50 (RD: Human rhabdomyoma): 1.03 µM; IC50 [3]: 0.69 µM; IC50 [4]: 0.82 µM; IC50 (A549: human lung cancer): 4.03 µM; IC50 [5]: 0.72 µM
2 | CC(C)(C)c1ccc(O)c(C(=O)Nc2cc(C(F)(F)F)cc(C(F)(F)F)c2)c1 [compound 11, N-[3,5-Bis(trifluoromethyl)phenyl]-5-[(1,1-dimethyl)ethyl]-2-hydroxybenzamide] | 0.78 | 1.21 | 1.96 | 1.82 |  |  |  | 
3 | O=C(Nc1cc(C(F)(F)F)cc(C(F)(F)F)c1)c1cc(-n2cccc2)ccc1O [compound 27] |  |  |  |  |  |  |  | IC50 [1]: 1.19 µM; IC50 [2]: 1.2 µM; IC50 (RD: Human rhabdomyoma): 1.26 µM; IC50 [3]: 1.96 µM
4 | O=C(Nc1cc(C(F)(F)F)cc(C(F)(F)F)c1)c1cc(C(=O)N2CCC(Cc3ccccc3)CC2)ccc1O [compound 40, N-[3,5-Bis(trifluoromethyl)phenyl]-2-hydroxy-5-(4-benzylpiperidine-1-carbonyl)benzamide] |  |  |  |  |  |  |  | melting point: 179 to 180 °C
5 | CC(=O)Oc1ccccc1C(=O)Nc1cc(Cl)cc(Cl)c1 [compound 120, 2-acetoxy-N-(3,5-dichlorophenyl)benzamide] |  |  |  |  |  |  |  | melting point: 218 to 219 °C
6 | CC(C)(C)C(=O)c1sc(NC(=O)c2cc(Cl)ccc2O)nc1C(C)(C)C [compound 199, 5-Chloro-N-{4-[(1,1-dimethyl)ethyl]-5-[(2,2-dimethyl)propionyl]thiazol-2-yl}-2-hydroxybenzamide] | 0.46 | 0.44 | 0.57 | 1.26 | 0.56 | 5.15 | 0.59 | 
7 | CC(C)(C)c1nc(NC(=O)c2cc(Br)ccc2O)sc1N1CCOCC1 [compound 205, 5-Bromo-N-{4-[(1,1-dimethyl)ethyl]-5-morpholinothiazol-2-yl}-2-hydroxybenzamide] | 1.45 | 1.89 | 1.94 | 3.5 | > 10 | > 10 | 4.23 | 
8 | CC(C)(C)c1nc(NC(=O)c2cc(Br)ccc2O)sc1N1CCN(c2ccccc2)CC1 [compound 207, 5-Bromo-N-{4-[(1,1-dimethyl)ethyl]-5-(4-phenylpiperazin-1-yl)thiazol-2-yl}-2-hydroxybenzamide] | 1.26 | 1.64 | 1.52 | 1.76 |  |  |  | 
9 | O=C(Nc1nc(-c2ccccc2)c(C(=O)c2ccccc2)s1)c1cc(Br)ccc1O [compound 215, 5-Bromo-N-(5-benzoyl-4-phenylthiazol-2-yl)-2-hydroxybenzamide] |  |  |  |  | 2.76 | 8.31 | 4.98 | 
